Measured values taken from patent US20170190671A1, “BIS(ARYL)CATECHOL DERIVATIVES AS HERBICIDES” (E I DU PONT DE NEMOURS AND COMPANY, priority 2014, published 2017).

What was measured:
Test in all cases: Test E preemergence
Type in all cases: in vivo
Conditions in all cases: scale 0 to 100
[1] = tested on: palmer pigweed (Amaranthus palmeri)
From the text: (§1) Seeds of plant species selected from corn (Zea mays), soybean (Glycine max), velvetleaf (Abutilon theophrasti), cocklebur (common cocklebur, Xanthium strumarium), lambsquarters (Chenopodium album), wild poinsettia (Euphorbia heterophylla), palmer pigweed (Amaranthus palmeri), waterhemp (common waterhemp, Amaranthus rudis), surinam grass (Brachiaria decumbens), large (Lg) crabgrass (Digitaria sanguinalis), Brazilian crabgrass (Digitaria horizontalis), fall panicum (Panicum dichotomiflorum), giant foxtail (Setaria faberii), green foxtail (Setaria viridis), goosegrass (Eleusine indica), johnsongrass (Sorghum halepense), ragweed (common ragweed, Ambrosia elatior), barnyardgrass (Echinochloa crus-galli), sandbur (southern sandbur, Cenchrus echinatus), arrowleaf sida (Sida rhombifolia), Italian ryegrass (Lolium multiflorum), dayflower (Virginia (VA) dayflower, Commelina virginica), field bindweed (Convolvulus arvensis), morningglory (Ipomoea coccinea), nightshade (eastern black nightshade, Solanum ptycanthum), kochia (Kochia scoparia), yellow nutsedge (Cyperus esculentus), horseweed (Conyza canadensis), and hairy beggarticks (Bidens pilosa), were planted into a silt loam soil and treated preemergence with test chemicals formulated in a non-phytotoxic solvent mixture which included a surfactant.
(§2) At the same time, plants from these crop and weed species and also waterhemp_RES1, (ALS & Triazine resistant common waterhemp, Amaranthus rudis), and waterhemp_RES2, (ALS & HPPD resistant common waterhemp, Amaranthus rudis) were planted in pots containing Redi-Earth® planting medium (Scotts Company, 14111 Scottslawn Road, Marysville, Ohio 43041) comprising spaghnum peat moss, vermiculite, wetting agent and starter nutrients were treated with postemergence applications of test chemicals formulated in the same manner. Plants ranged in height from 2 to 18 cm for postemergence treatments (1- to 4-leaf stage). Treated plants and controls were maintained in a greenhouse for 14 to 21 days, after which time all species were compared to controls and visually evaluated. Plant response ratings, summarized in Table E, are based on a scale of 0 to 100 where 0 is no effect and 100 is complete control. A dash (-) response means no test result.

[2] = tested on: green foxtail (Setaria viridis)
From the text: as §1, §2

[3] = tested on: yellow nutsedge (Cyperus esculentus)
From the text: as §1, §2

[4] = tested on: giant foxtail (Setaria faberii)
From the text: as §1, §2

[5] = tested on: field bindweed (Convolvulus arvensis)
From the text: as §1, §2

[6] = tested on: lambsquarters (Chenopodium album)
From the text: as §1, §2

[7] = tested on: arrowleaf sida (Sida rhombifolia)
From the text: as §1, §2

[8] = tested on: goosegrass (Eleusine indica)
From the text: as §1, §2

[9] = tested on: morningglory (Ipomoea coccinea)
From the text: as §1, §2

[10] = tested on: barnyardgrass (Echinochloa crus-galli)
From the text: as §1, §2

[11] = tested on: hairy beggarticks (Bidens pilosa)
From the text: as §1, §2

[12] = tested on: Brazilian crabgrass (Digitaria horizontalis)
From the text: as §1, §2

[13] = tested on: nightshade (eastern black nightshade, Solanum ptycanthum)
From the text: as §1, §2

[14] = tested on: dayflower (Virginia (VA) dayflower, Commelina virginica)
From the text: as §1, §2

[15] = tested on: fall panicum (Panicum dichotomiflorum)
From the text: as §1, §2

kochia (Kochia scoparia) = tested on: kochia (Kochia scoparia)
From the text: as §1, §2

corn (Zea mays) = tested on: corn (Zea mays)
From the text: as §1, §2

[16] = tested on: sandbur (southern sandbur, Cenchrus echinatus)
From the text: as §1, §2

soybean (Glycine max) = tested on: soybean (Glycine max)
From the text: as §1, §2

[17] = tested on: Italian ryegrass (Lolium multiflorum)
From the text: as §1, §2

[18] = tested on: large (Lg) crabgrass (Digitaria sanguinalis)
From the text: as §1, §2

Fc1cccc(Oc2ncc(Cl)cn2)c1Oc1ncc(Cl)cn1 [Compound 21, 2,2′-[[3-fluoro-1,2-phenylene]bis(oxy)]bis[5-chloropyrimidine]]
75: Plant response rating, Goosegrass ([8]; 62 g ai/ha) | Plant response rating, Panicum, Fall ([15]; 31 g ai/ha) | Plant response rating, Kochia (kochia (Kochia scoparia); 62 g ai/ha) | Plant response rating, Crabgrass, Large ([18]; 31 g ai/ha)
100: Plant response rating, Pigweed, Palmer ([1]; 62 g ai/ha) | Plant response rating, Pigweed, Palmer ([1]; 125 g ai/ha) | Plant response rating, Foxtail, Green ([2]; 125 g ai/ha) | Plant response rating, Foxtail, Giant ([4]; 62 g ai/ha) | Plant response rating, Foxtail, Giant ([4]; 125 g ai/ha) | Plant response rating, Lambsquarters ([6]; 62 g ai/ha) | Plant response rating, Lambsquarters ([6]; 125 g ai/ha) | Plant response rating, Arrowleaf Sida ([7]; 31 g ai/ha) | Plant response rating, Arrowleaf Sida ([7]; 62 g ai/ha) | Plant response rating, Arrowleaf Sida ([7]; 125 g ai/ha) | Plant response rating, Barnyardgrass ([10]; 125 g ai/ha) | Plant response rating, Crabgrass, Brazil ([12]; 62 g ai/ha) | Plant response rating, Crabgrass, Brazil ([12]; 125 g ai/ha) | Plant response rating, Nightshade ([13]; 125 g ai/ha) | Plant response rating, Panicum, Fall ([15]; 62 g ai/ha) | Plant response rating, Panicum, Fall ([15]; 125 g ai/ha) | Plant response rating, Kochia (kochia (Kochia scoparia); 125 g ai/ha) | Plant response rating, Crabgrass, Large ([18]; 125 g ai/ha)
20: Plant response rating, Barnyardgrass ([10]; 31 g ai/ha) | Plant response rating, Kochia (kochia (Kochia scoparia); 16 g ai/ha)
40: Plant response rating, Field Bindweed ([5]; 125 g ai/ha) | Plant response rating, Lambsquarters ([6]; 31 g ai/ha)
60: Plant response rating, Pigweed, Palmer ([1]; 31 g ai/ha)
98: Plant response rating, Goosegrass ([8]; 125 g ai/ha) | Plant response rating, Nightshade ([13]; 62 g ai/ha)
10: Plant response rating, Goosegrass ([8]; 16 g ai/ha) | Plant response rating, Morningglory ([9]; 16 g ai/ha) | Plant response rating, Corn (corn (Zea mays); 62 g ai/ha)
65: Plant response rating, Barnyardgrass ([10]; 62 g ai/ha) | Plant response rating, Crabgrass, Brazil ([12]; 31 g ai/ha) | Plant response rating, Soybean (soybean (Glycine max); 62 g ai/ha)
0: Plant response rating, Pigweed, Palmer ([1]; 16 g ai/ha) | Plant response rating, Nutsedge, Yellow ([3]; 16 g ai/ha) | Plant response rating, Nutsedge, Yellow ([3]; 31 g ai/ha) | Plant response rating, Nutsedge, Yellow ([3]; 62 g ai/ha) | Plant response rating, Field Bindweed ([5]; 16 g ai/ha) | Plant response rating, Field Bindweed ([5]; 31 g ai/ha) | Plant response rating, Lambsquarters ([6]; 16 g ai/ha) | Plant response rating, Beggarticks ([11]; 16 g ai/ha) | Plant response rating, Beggarticks ([11]; 31 g ai/ha) | Plant response rating, Beggarticks ([11]; 62 g ai/ha) | Plant response rating, Beggarticks ([11]; 125 g ai/ha) | Plant response rating, Crabgrass, Brazil ([12]; 16 g ai/ha) | Plant response rating, Dayflower, VA ([14]; 16 g ai/ha) | Plant response rating, Dayflower, VA ([14]; 31 g ai/ha) | Plant response rating, Corn (corn (Zea mays); 16 g ai/ha) | Plant response rating, Corn (corn (Zea mays); 31 g ai/ha) | Plant response rating, Sandbur ([16]; 16 g ai/ha) | Plant response rating, Sandbur ([16]; 31 g ai/ha) | Plant response rating, Soybean (soybean (Glycine max); 16 g ai/ha) | Plant response rating, Ryegrass, Italian ([17]; 16 g ai/ha) | Plant response rating, Ryegrass, Italian ([17]; 31 g ai/ha)
35: Plant response rating, Panicum, Fall ([15]; 16 g ai/ha) | Plant response rating, Ryegrass, Italian ([17]; 62 g ai/ha)
90: Plant response rating, Foxtail, Giant ([4]; 31 g ai/ha) | Plant response rating, Arrowleaf Sida ([7]; 16 g ai/ha) | Plant response rating, Morningglory ([9]; 62 g ai/ha) | Plant response rating, Nightshade ([13]; 31 g ai/ha) | Plant response rating, Soybean (soybean (Glycine max); 125 g ai/ha)
70: Plant response rating, Foxtail, Green ([2]; 62 g ai/ha) | Plant response rating, Ryegrass, Italian ([17]; 125 g ai/ha)
50: Plant response rating, Foxtail, Green ([2]; 31 g ai/ha) | Plant response rating, Goosegrass ([8]; 31 g ai/ha) | Plant response rating, Morningglory ([9]; 31 g ai/ha) | Plant response rating, Kochia (kochia (Kochia scoparia); 31 g ai/ha) | Plant response rating, Corn (corn (Zea mays); 125 g ai/ha) | Plant response rating, Sandbur ([16]; 125 g ai/ha) | Plant response rating, Crabgrass, Large ([18]; 16 g ai/ha)
5: Plant response rating, Foxtail, Giant ([4]; 16 g ai/ha)
95: Plant response rating, Dayflower, VA ([14]; 125 g ai/ha) | Plant response rating, Crabgrass, Large ([18]; 62 g ai/ha)
80: Plant response rating, Morningglory ([9]; 125 g ai/ha) | Plant response rating, Nightshade ([13]; 16 g ai/ha)
15: Plant response rating, Foxtail, Green ([2]; 16 g ai/ha) | Plant response rating, Nutsedge, Yellow ([3]; 125 g ai/ha) | Plant response rating, Field Bindweed ([5]; 62 g ai/ha) | Plant response rating, Barnyardgrass ([10]; 16 g ai/ha) | Plant response rating, Sandbur ([16]; 62 g ai/ha)
25: Plant response rating, Dayflower, VA ([14]; 62 g ai/ha) | Plant response rating, Soybean (soybean (Glycine max); 31 g ai/ha)
